The source of these data is patent US8609690B2, “Aryl- and heteroarylcarbonyl derivatives of substituted nortropanes, medicaments containing such compounds and their use” (Boehringer Ingelheim International GmbH, priority 2008, dated 2013).

This assay deals with T1, 11β-HSD 1 (Homo sapiens, UniProt P28845).
T1 construct: detecting cortisol generated from cortisterone by human liver microsomes; from tissue; host or cells: human liver microsomes
In words: In vitro inhibition of 11β-HSD 1, HTRF detection of cortisol generated by human liver microsomes. It is filed as biochemical. As to conditions: 1 μM test compound, 100% indicates no inhibition, zero or below zero indicates complete inhibition (relative to carbenoxolone). The protocol: Briefly, compounds were incubated for 1 hour at 37° C. in Tris buffer (20 mM tris, 5 mM EDTA, pH 6.0) containing NADPH (200 μM) and cortisone (80 nM). Cortisol generated in the reaction is then detected with a competitive immunoassay, involving two HTRF conjugates: cortisol linked to XL665 and anti-cortisol antibody labeled with Europium cryptate. The incubation period for detection reaction was typically 2 hours. The amount of cortisol is determined by reading the time-resolved fluorescence of the wells (Ex 320/75 nm; Em 615/8.5 nm and 665/7.5 nm). The ratio of the two emission signals is then calculated (Em665*10000/Em615). […] Each assay also contained a calibration curve with cortisol to transform the fluorescent data into cortisol concentrations. Percent inhibition of each compound was determined relative to the carbenoxolone signal. In Table 2 the 11β-HSD 1 inhibitory activities at 1 μM concentration of test compound, determined as described above, of the compounds listed in Table 3 are compiled, wherein 100% indicates no inhibition and a value of zero or below zero indicates complete inhibition.
On the technique in general: Time-resolved FRET reads energy transfer from a long-lived donor to a nearby acceptor.

T1 sequence (P28845 whole entry): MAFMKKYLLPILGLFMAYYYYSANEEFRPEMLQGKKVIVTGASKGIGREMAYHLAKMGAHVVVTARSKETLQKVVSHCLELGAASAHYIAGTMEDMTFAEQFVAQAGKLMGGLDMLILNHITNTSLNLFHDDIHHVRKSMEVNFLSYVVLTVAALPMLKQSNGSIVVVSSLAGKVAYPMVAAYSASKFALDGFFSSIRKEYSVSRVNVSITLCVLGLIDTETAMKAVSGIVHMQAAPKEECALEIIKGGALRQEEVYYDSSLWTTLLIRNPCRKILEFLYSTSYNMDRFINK

Turning to `O=C(c1ccc2[nH]ccc2c1)N1[C@@H]2CC[C@H]1C[C@@H](c1ccc(F)cc1)C2` [Example 113, endo-[3-(4-Fluoro-phenyl)-8-aza-bicyclo[3.2.1]oct-8-yl]-(1H-indol-5-yl)-methanone], the “Inhibitory activity on 11β-HSD 1, % CTL” value is recorded as −23 % CTL.

Consider `O=C(c1ccc2c(c1)OCCO2)N1C2CCC1CC(c1ccc(Cl)cc1)C2` (stereo not drawn) [Example 151, [3-(4-Chloro-phenyl)-8-aza-bicyclo[3.2.1]oct-8-yl]-(2,3-dihydro-benzo[1,4]dioxin-6-yl)-methanone], for which the “Inhibitory activity on 11β-HSD 1, % CTL” value is reported as −44 % CTL.

As for `O=C(c1ccc(O)c(Cl)c1)N1[C@@H]2CC[C@H]1C[C@@H](c1ccc(F)cc1)C2` [Example 167, endo-(3-Chloro-4-hydroxy-phenyl)-[3-(4-fluoro-phenyl)-8-aza-bicyclo[3.2.1]oct-8-yl]-methanone], the “Inhibitory activity on 11β-HSD 1, % CTL” value is reported as −22 % CTL.

On to `O=C(c1ccco1)N1[C@@H]2CC[C@H]1C[C@@H](c1ccc(F)cc1)C2` [Example 34, endo-[3-(4-Fluoro-phenyl)-8-aza-bicyclo[3.2.1]oct-8-yl]-furan-2-yl-methanone], for which the “Inhibitory activity on 11β-HSD 1, % CTL” value was 75 % CTL. On to `COc1ccc(C(=O)N2[C@@H]3CC[C@H]2C[C@@H](c2ccc(F)cc2)C3)cc1` [Example 108, endo-[3-(4-Fluoro-phenyl)-8-aza-bicyclo[3.2.1]oct-8-yl]-(4-methoxy-phenyl)-methanone], for which the “Inhibitory activity on 11β-HSD 1, % CTL” value came to 1 % CTL. Turning to `O=C1CCCN1c1cccc(C(=O)N2[C@@H]3CC[C@H]2C[C@@H](c2ccc(F)cc2)C3)c1` [Example 75, endo-1-{3-[3-(4-Fluoro-phenyl)-8-aza-bicyclo[3.2.1]octane-8-carbonyl]-phenyl}-pyrrolidin-2-one], the “Inhibitory activity on 11β-HSD 1, % CTL” value turned out to be 92 % CTL. In the case of `COc1c(F)cc(C(=O)N2[C@@H]3CC[C@H]2C[C@@H](c2ccc(F)cc2)C3)cc1F` [Example 168, endo-(3,5-Difluoro-4-methoxy-phenyl)-[3-(4-fluoro-phenyl)-8-aza-bicyclo[3.2.1]oct-8-yl]-methanone] it was 6 % CTL. Take `O=C(c1ccc(O)nc1)N1[C@@H]2CC[C@H]1C[C@@H](c1ccc(F)cc1)C2` [Example 102, endo-[3-(4-Fluoro-phenyl)-8-aza-bicyclo[3.2.1]oct-8-yl]-(6-hydroxy-pyridin-3-yl)-methanone]: the “Inhibitory activity on 11β-HSD 1, % CTL” value amounted to 47 % CTL.

In the case of `O=C(c1ccc(F)cc1)N1[C@@H]2CC[C@H]1C[C@@H](c1ccc(F)cc1)C2` [Example 103, endo-(4-Fluoro-phenyl)-[3-(4-fluoro-phenyl)-8-aza-bicyclo[3.2.1]oct-8-yl]-methanone], the “Inhibitory activity on 11β-HSD 1, % CTL” value is reported as 32 % CTL. Turning to `Cc1ccc([C@H]2C[C@H]3CC[C@@H](C2)N3C(=O)c2ccc(OC3CSC3)cc2)cc1` [Example 32, endo-[4-(Thietan-3-yloxy)-phenyl]-(3-p-tolyl-8-aza-bicyclo[3.2.1]oct-8-yl)-methanone], the “Inhibitory activity on 11β-HSD 1, % CTL” value is given as 94 % CTL. Turning to `NCc1cccc([C@@H]2C[C@H]3CC[C@@H](C2)N3C(=O)c2ccc3c(c2)OCCO3)c1` [Example 147, exo-[3-(3-Aminomethyl-phenyl)-8-aza-bicyclo[3.2.1]oct-8-yl]-(2,3-dihydro-benzo[1,4]dioxin-6-yl)-methanone], the “Inhibitory activity on 11β-HSD 1, % CTL” value is reported as 99 % CTL. With `O=C(c1nccc2ccccc12)N1[C@@H]2CC[C@H]1C[C@@H](c1ccc(F)cc1)C2` [Example 33, endo-[3-(4-Fluoro-phenyl)-8-aza-bicyclo[3.2.1]oct-8-yl]-isoquinolin-1-yl-methanone], the “Inhibitory activity on 11β-HSD 1, % CTL” value is 88 % CTL. In the case of `CC(=O)NCc1ccc(C(=O)N2[C@@H]3CC[C@H]2C[C@@H](c2ccc(F)cc2)C3)cc1` [Example 71, endo-N-{4-[3-(4-Fluoro-phenyl)-8-aza-bicyclo[3.2.1]octane-8-carbonyl]-benzyl}-acetamide], the “Inhibitory activity on 11β-HSD 1, % CTL” value was 41 % CTL. In the case of `Cc1cc(=O)n2ncc(C(=O)N3[C@@H]4CC[C@H]3C[C@@H](c3ccc(F)cc3)C4)c2[nH]1` [Example 8, endo-3-[3-(4-Fluoro-phenyl)-8-aza-bicyclo[3.2.1]octane-8-carbonyl]-5-methyl-4H-pyrazolo[1,5-a]pyrimidin-7-one] it was 87 % CTL; in that of `O=C(c1ccc2c(c1)CCCN2)N1[C@@H]2CC[C@H]1C[C@@H](c1ccc(F)cc1)C2` [Example 54, endo-[3-(4-Fluoro-phenyl)-8-aza-bicyclo[3.2.1]oct-8-yl]-(1,2,3,4-tetrahydro-quinolin-6-yl)-methanone], −56 % CTL; in that of `CC(=O)c1ccccc1C(=O)N1[C@@H]2CC[C@H]1C[C@@H](c1ccc(F)cc1)C2` [Example 126, endo-1-{2-[3-(4-Fluoro-phenyl)-8-aza-bicyclo[3.2.1]octane-8-carbonyl]-phenyl}-ethanone], 63 % CTL. On to `O=C(c1ccc2c(c1)OCCO2)N1[C@@H]2CC[C@H]1C[C@@H](c1cccnc1)C2` [Example 153, endo-(2,3-Dihydro-benzo[1,4]dioxin-6-yl)-(3-pyridin-3-yl-8-aza-bicyclo[3.2.1]oct-8-yl)-methanone], for which the “Inhibitory activity on 11β-HSD 1, % CTL” value is −4 % CTL. For `O=C(c1ccc2nn[nH]c2c1)N1[C@@H]2CC[C@H]1C[C@@H](c1ccc(F)cc1)C2` [Example 120, endo-(3H-Benzotriazol-5-yl)-[3-(4-fluoro-phenyl)-8-aza-bicyclo[3.2.1]oct-8-yl]-methanone], the “Inhibitory activity on 11β-HSD 1, % CTL” value was found to be 25 % CTL. Under `O=C(c1cc(F)c(O)c(F)c1)N1[C@@H]2CC[C@H]1C[C@@H](c1ccc(F)cc1)C2` [Example 172, endo-(3,5-Difluoro-4-hydroxy-phenyl)-[3-(4-fluoro-phenyl)-8-aza-bicyclo[3.2.1]oct-8-yl]-methanone] stands 0 % CTL; under `Cc1ccccc1C(=O)N1[C@@H]2CC[C@H]1C[C@@H](c1ccc(F)cc1)C2` [Example 100, endo-[3-(4-Fluoro-phenyl)-8-aza-bicyclo[3.2.1]oct-8-yl]-o-tolyl-methanone], 61 % CTL; under `Cn1c(=O)n(C)c2cc(C(=O)N3[C@@H]4CC[C@H]3C[C@@H](c3ccc(F)cc3)C4)ccc21` [Example 39, endo-5-[3-(4-Fluoro-phenyl)-8-aza-bicyclo[3.2.1]octane-8-carbonyl]-1,3-dimethyl-1,3-dihydro-benzoimidazol-2-one], 43 % CTL. In the case of `O=C(c1nsc(Cl)c1Cl)N1[C@@H]2CC[C@H]1C[C@@H](c1ccc(F)cc1)C2` [Example 30, endo-(4,5-Dichloro-isothiazol-3-yl)-[3-(4-fluoro-phenyl)-8-aza-bicyclo[3.2.1]oct-8-yl]-methanone] it was 88 % CTL; in that of `O=C(c1ccc2nccnc2c1)N1[C@@H]2CC[C@H]1C[C@@H](c1ccc(F)cc1)C2` [Example 70, endo-[3-(4-Fluoro-phenyl)-8-aza-bicyclo[3.2.1]oct-8-yl]-quinoxalin-6-yl-methanone], 19 % CTL. For the molecule `O=C(c1ccc2c(c1)OCCO2)N1[C@@H]2CC[C@H]1C[C@@H](c1ccc(O)cc1)C2` [Example 142, endo-(2,3-Dihydro-benzo[1,4]dioxin-6-yl)-[3-(4-hydroxy-phenyl)-8-aza-bicyclo[3.2.1]oct-8-yl]-methanone], the “Inhibitory activity on 11β-HSD 1, % CTL” value amounted to 31 % CTL.

Take `O=C(c1ccc2c(c1)OCCO2)N1[C@@H]2CC[C@H]1C[C@@H](c1ccc(F)cc1)C2` [Example 3, endo-(2,3-Dihydro-benzo[1,4]dioxin-6-yl)-[3-(4-fluoro-phenyl)-8-aza-bicyclo[3.2.1]oct-8-yl]-methanone]: the “Inhibitory activity on 11β-HSD 1, % CTL” value is given as −32 % CTL. In the case of `O=C(c1ccc(CO)cc1)N1[C@@H]2CC[C@H]1C[C@@H](c1ccc(F)cc1)C2` [Example 121, endo-[3-(4-Fluoro-phenyl)-8-aza-bicyclo[3.2.1]oct-8-yl]-(4-hydroxymethyl-phenyl)-methanone] it was −28 % CTL. As to `Cc1[nH]c2ccc(C(=O)N3[C@@H]4CC[C@H]3C[C@@H](c3ccc(F)cc3)C4)cc2c1C` [Example 132, endo-(2,3-Dimethyl-1H-indol-5-yl)-[3-(4-fluoro-phenyl)-8-aza-bicyclo[3.2.1]oct-8-yl]-methanone], the “Inhibitory activity on 11β-HSD 1, % CTL” value was −36 % CTL. Under `O=C(c1ccc2c(c1)OCCO2)N1[C@@H]2CC[C@H]1C[C@@H](c1ccc(OC(F)(F)F)cc1)C2` [Example 140, endo-(2,3-Dihydro-benzo[1,4]dioxin-6-yl)-[3-(4-trifluoromethoxy-phenyl)-8-aza-bicyclo[3.2.1]oct-8-yl]-methanone] stands −5 % CTL. In the case of `Cc1nc2ccc(C(=O)N3[C@@H]4CC[C@H]3C[C@@H](c3ccc(F)cc3)C4)cc2[nH]1` [Example 74, endo-[3-(4-Fluoro-phenyl)-8-aza-bicyclo[3.2.1]oct-8-yl]-(2-methyl-3H-benzoimidazol-5-yl)-methanone] it was 69 % CTL.

On to `O=C(c1ccc(O)c(C(F)(F)F)c1)N1[C@@H]2CC[C@H]1C[C@@H](c1ccc(F)cc1)C2` [Example 174, endo-[3-(4-Fluoro-phenyl)-8-aza-bicyclo[3.2.1]oct-8-yl]-(4-hydroxy-3-trifluoromethyl-phenyl)-methanone], for which the “Inhibitory activity on 11β-HSD 1, % CTL” value is −40 % CTL.
